From patent publication US6465509B2, “Pyrones as inhibitors of cyclooxygenase-2” (Merck Frosst Canada & Co., priority 2000, dated 2002)

Columns and labels:
COX-2 [1] = target: T1, COX-2 (Homo sapiens, UniProt P35354); assay: Whole cell assay for COX-2 using CHO[hCOX-2] transfected cell line; type: cell-based; design: expressed in transfected cells; host or cells: CHO cells stably transfected with pCDNAIII (CHO[hCOX-2]); conditions: CHO[hCOX-2] cells, PGE2 synthesis, 10 μM AA
T1 sequence (P35354 18-604): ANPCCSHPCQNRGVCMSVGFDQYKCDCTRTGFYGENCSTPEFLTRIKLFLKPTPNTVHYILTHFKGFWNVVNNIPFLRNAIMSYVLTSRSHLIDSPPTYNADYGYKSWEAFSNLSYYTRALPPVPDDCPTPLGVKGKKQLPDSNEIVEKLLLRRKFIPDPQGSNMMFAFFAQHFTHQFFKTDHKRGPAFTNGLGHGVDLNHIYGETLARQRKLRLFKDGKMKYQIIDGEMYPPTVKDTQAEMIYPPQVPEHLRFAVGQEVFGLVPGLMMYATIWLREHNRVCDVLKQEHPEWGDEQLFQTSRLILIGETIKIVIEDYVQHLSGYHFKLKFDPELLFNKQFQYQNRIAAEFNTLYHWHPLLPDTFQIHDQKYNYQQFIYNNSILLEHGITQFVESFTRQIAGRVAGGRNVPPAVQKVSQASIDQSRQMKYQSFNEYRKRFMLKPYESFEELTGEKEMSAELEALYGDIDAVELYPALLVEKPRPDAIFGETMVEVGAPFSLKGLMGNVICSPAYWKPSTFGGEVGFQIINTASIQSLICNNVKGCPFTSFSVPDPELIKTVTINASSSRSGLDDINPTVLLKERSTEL
Description: Whole cell assays for COX-2 and COX-1 using CHO transfected cell lines
Chinese hamster ovary (CHO) cell lines which have been stably transfected with an eukaryotic expression vector pCDNAIII containing either the human COX-1 or COX-2 cDNA's are used for the assay. These cell lines are referred to as CHO[hCOX-1] and CHO[hCOX-2], respectively. For cyclooxygenase assays, CHO[hCOX-1] cells from suspension cultures and CHO[hCOX-2] cells prepared by trypsinization of adherent cultures are harvested by centrifugation (300×g, 10 min) and washed once in HBSS containing 15 mM HEPES, pH 7.4, and resuspended in HBSS, 15 mM HEPES, pH 7.4, at a cell concentration of 1.5×10^6 cells/ml. Drugs to be tested are dissolved in DMSO to 66.7-fold the highest test drug concentration. Compounds are typically tested at 8 concentrations in duplicate using serial 3-fold serial dilutions in DMSO of the highest drug concentration. Cells (0.3×10^6 cells in 200 μl) are preincubated with 3 μl of the test drug or DMSO vehicle for 15 min at 37° C. Working solutions of peroxide-free AA (5.5 μM and 110 μM AA for the CHO[hCOX-1] and CHO[COX-2] assays, respectively) are prepared by a 10-fold dilution of a concentrated AA solution in ethanol into HBSS containing 15 mM HEPES, pH 7.4. Cells are then challenged in the presence or absence of drug with the AA/HBSS solution to yield a final concentration of 0.5 μM AA in the CHO[hCOX-1] assay and a final concentration of 10 μM AA in the CHO[hCOX-2] assay. The reaction is terminated by the addition of 10 μl 1N HCl followed by neutralization with 20 μl of 0.5N NaOH. The samples are centrifuged at 300×g at 4° C. for 10 min, and an aliquot of the clarified supernatant is appropriately diluted for the determination of PGE2 levels using an enzyme-linked immunoassay for PGE2 (Correlate PGE2 enzyme immunoassay kit, Assay Designs, Inc.). Cyclooxygenase activity in the absence of test compounds is determined as the difference in PGE2 levels of cells challenged with arachidonic acid versus the PGE2 levels in cells mock-challenged with ethanol vehicle. Inhibition of PGE2 synthesis by test compounds is calculated as a percentage of the activity in the presence of drug versus the activity in the positive control samples.
Compounds of the present invention are inhibitors of cyclooxygenase-2 and are thereby useful in the treatment of cyclooxygenase-2 mediated diseases as enumerated above. The activities of the compounds against cyclooxygenase may be seen in the representative results shown below. In the assay, inhibition is determined by measuring the amount of prostaglandin E2 (PGE2) synthesized in the presence of arachidonic acid, cyclooxygenase-1 or cyclooxygenase-2 and a putative inhibitor. The IC50 values represent the concentration of putative inhibitor required to return PGE2 synthesis to 50% of that obtained as compared to the uninhibited control.

COX-2 [2] = target: T1, COX-2; assay: Human whole blood assay, COX-2 (LPS-induced PGE2 production); type: cell-based; design: endogenous in cells; host or cells: fresh heparinized human whole blood from volunteers, incubated with LPS; conditions: LPS-induced PGE2, 24 hours at 37° C., read-out: COX-2 (IC50 μM) HWB
Procedure: Human whole blood provides a protein and cell-rich milieu appropriate for the study of biochemical efficacy of anti-inflammatory compounds such as selective COX-2 inhibitors. […] This is consistent with the observation that COX-2 inhibitors have no effect on PGE2 production in normal blood. These inhibitors are active only after incubation of human whole blood with LPS, which induces COX-2. This assay can be used to evaluate the inhibitory effect of selective COX-2 inhibitors on PGE2 production. As well, platelets in whole blood contain a large amount of the COX-1 enzyme. Immediately following blood clotting, platelets are activated through a thrombin-mediated mechanism. This reaction results in the production of thromboxane B2 (TxB2) via activation of COX-1. Thus, the effect of test compounds on TxB2 levels following blood clotting can be examined and used as an index for COX-1 activity. Therefore, the degree of selectivity by the test compound can be determined by measuring the levels of PGE2 after LPS induction (COX-2) and TxB2 following blood clotting (COX-1) in the same assay.
A. COX-2 (LPS-induced PGE2 production)
Fresh blood is collected in heparinized tubes by venipuncture from both male and female volunteers. The subjects have no apparent inflammatory conditions and have not taken any NSAIDs for at least 7 days prior to blood collection. Plasma is immediately obtained from a 2 mL blood aliquot to use as blank (basal levels of PGE2). The remaining blood is incubated with LPS (100 μg/ml final concentration, Sigma Chem, #L-2630 from E. coli; diluted in 0.1% BSA (Phosphate buffered saline) for 5 minutes at room temperature. Five hundred μL aliquots of blood are incubated with either 2 μL of vehicle (DMSO) or 2 μL of a test compound at final concentrations varying from 10 nM to 30 μM for 24 hours at 37° C. At the end of the incubation, the blood is centrifuged at 12,000×g for 5 minutes to obtain plasma. A 100 μL aliquot of plasma is mixed with 400 μL of methanol for protein precipitation. The supernatant is obtained and is assayed for PGE2 using a radioimmunoassay kit (Amersham, RPA#530) after conversion of PGE2 to its methyl oximate derivative according to the manufacturer's procedure.

Question: Which IC50 (COX-2 [1]) does the source give for `CS(=O)(=O)c1ccc(-c2cc(CC(F)(F)F)oc(=O)c2-c2ccccc2)cc1` [Example 13, 4-(4-Methylsulfonyl)phenyl-3-phenyl-6-(2,2,2-trifluoroethyl)-pyran-2-one] here?
Answer: 0.37 µM

Question: What about the IC50 (COX-2 [2]) of the same compound?
Answer: 10.5 µM
